ChEMBL document CHEMBL1201862, “PubChem BioAssay data set” (2004)
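Step 1: Grow cells in 96-well plates. Step 2: Expose to compound for 48 hours at 5 concentrations. Step 3: Interpolate endpoints linearly; if unreached, use highest concentration. GI50 marks 50% less growth.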 Activity calls are given as the source filed them. Cut-off read from the data, not from the text of the source: active = GI50 up to about 1.1 µM and inactive = higher.

Key:
Test in all cases: growth of human tumour cells (NCI), 48 h
CAKI-1 = tested on: CAKI-1
HCT-116 = tested on: HCT-116
HCT-15 = tested on: HCT-15
HL-60 = tested on: HL-60
Hs-578T = tested on: Hs-578T
IGROV-1 = tested on: IGROV-1
K562 = tested on: K562
LOX IMVI = tested on: LOX IMVI
MCF7 = tested on: MCF7
MDA-MB-231 = tested on: MDA-MB-231
MOLT-4 = tested on: MOLT-4
NCI-H23 = tested on: NCI-H23
PC-3 = tested on: PC-3
RXF 393 = tested on: RXF 393
SF-268 = tested on: SF-268
SK-MEL-5 = tested on: SK-MEL-5
SK-OV-3 = tested on: SK-OV-3
SR = tested on: SR
UACC-62 = tested on: UACC-62
UO-31 = tested on: UO-31

Compound | GI50 (CAKI-1) | GI50 (HCT-116) | GI50 (HCT-15) [µM] | GI50 (HL-60) | GI50 (Hs-578T) | GI50 (IGROV-1) | GI50 (K562) | GI50 (LOX IMVI) | GI50 (MCF7) | GI50 (MDA-MB-231) | GI50 (MOLT-4) | GI50 (NCI-H23) | GI50 (PC-3) | GI50 (RXF 393) | GI50 (SF-268) | GI50 (SK-MEL-5) | GI50 (SK-OV-3) | GI50 (SR) | GI50 (UACC-62) | GI50 (UO-31)
N#C[C@H]1Nc2ccccc2[C@@H](O)C1O (stereo partly specified) | > 100 µM (inactive) | > 100 µM (inactive) | > 100 | > 100 µM (inactive) | > 100 µM (inactive) | > 100 µM (inactive) | > 100 µM (inactive) | > 100 µM (inactive) | > 100 µM (inactive) | > 100 µM (inactive) | > 100 µM (inactive) | > 100 µM (inactive) | > 100 µM (inactive) | > 100 µM (inactive) | > 100 µM (inactive) | > 100 µM (inactive) | > 100 µM (inactive) | > 100 µM (inactive) | > 100 µM (inactive) | 
Oc1c(C2=NNC(c3ccc(Cl)cc3Cl)C2)ccc2ccccc12 (stereo unspecified) | 66.5 µM (inactive) | 33.6 µM (inactive) | 34.9 |  | 35.6 µM (inactive) | 14.4 µM (inactive) | 23.1 µM (inactive) |  | 30.2 µM (inactive) | 46.5 µM (inactive) | 5.7 µM (inactive) | 68.1 µM (inactive) | 31.6 µM (inactive) | 37.9 µM (inactive) | 33 µM (inactive) | 52 µM (inactive) | 46.3 µM (inactive) | 8.38 µM (inactive) | 40.6 µM (inactive) | 54.3 µM (inactive)
O=C(NCc1ccc(Cl)c(Cl)c1)c1nc2ccccc2nc1NCc1ccc(Cl)c(Cl)c1 | > 100 µM (inactive) | > 100 µM (inactive) | > 100 | > 100 µM (inactive) | > 100 µM (inactive) | > 100 µM (inactive) | > 100 µM (inactive) | > 100 µM (inactive) | > 100 µM (inactive) | > 100 µM (inactive) |  | > 100 µM (inactive) | > 100 µM (inactive) | > 100 µM (inactive) | > 100 µM (inactive) | > 100 µM (inactive) |  | > 100 µM (inactive) | > 100 µM (inactive) | > 100 µM (inactive)
COc1ccc2c(c1)C(N)=C(c1ccccc1OC)C2=O | > 100 µM (inactive) | > 100 µM (inactive) | > 100 | 23.5 µM (inactive) | > 100 µM (inactive) | > 100 µM (inactive) | > 100 µM (inactive) | > 100 µM (inactive) | > 100 µM (inactive) | > 100 µM (inactive) | 75.7 µM (inactive) | > 100 µM (inactive) | 85.7 µM (inactive) | 25.1 µM (inactive) | > 100 µM (inactive) |  | > 100 µM (inactive) | 29.9 µM (inactive) | 77.8 µM (inactive) | 89.7 µM (inactive)
COC(=O)[C@]12C3=C(O)C(=O)C[C@H]1OC[C@H]2C=CC3 | > 100 µM (inactive) | > 10 µM (inactive) | > 100 |  | > 100 µM (inactive) | > 100 µM (inactive) | 64 µM (inactive) | > 100 µM (inactive) | > 100 µM (inactive) | > 100 µM (inactive) |  | > 100 µM (inactive) | > 100 µM (inactive) | > 100 µM (inactive) | > 100 µM (inactive) | > 100 µM (inactive) | > 100 µM (inactive) | > 100 µM (inactive) | > 100 µM (inactive) | > 100 µM (inactive)
N=C(N)SCc1nc(-c2ccc(Cl)cc2)no1 | 14 µM (inactive) | 14.6 µM (inactive) | 11.2 | 13.8 µM (inactive) | 42 µM (inactive) | 32.7 µM (inactive) | 5.71 µM (inactive) | 14.7 µM (inactive) | 12.9 µM (inactive) | 12.6 µM (inactive) | 3.56 µM (inactive) | 34.4 µM (inactive) | 14 µM (inactive) | 12.1 µM (inactive) | 19.3 µM (inactive) | 31.1 µM (inactive) | 26.9 µM (inactive) | 4.48 µM (inactive) | 9.79 µM (inactive) | 
O=C(O)c1ccccc1NCn1c(=S)sc2ccccc21 | > 100 µM (inactive) | 40.7 µM (inactive) | 66.5 | 19.6 µM (inactive) | > 100 µM (inactive) | 57.4 µM (inactive) | > 100 µM (inactive) | 20 µM (inactive) | 22.4 µM (inactive) | 51.8 µM (inactive) | 35.1 µM (inactive) | 28.2 µM (inactive) | 45.6 µM (inactive) | > 100 µM (inactive) | 45.5 µM (inactive) |  | > 100 µM (inactive) | 29.6 µM (inactive) | 44.3 µM (inactive) | 51.2 µM (inactive)
C/C(=C\Cc1ccc(F)cc1)CCCCCC/C(C)=C/Cc1ccc(F)cc1 | 9.89 µM (inactive) | 15.8 µM (inactive) | 16.8 |  | 30.8 µM (inactive) | 4.63 µM (inactive) | 5.3 µM (inactive) | 3.91 µM (inactive) | 19.3 µM (inactive) | 17.9 µM (inactive) | 17.7 µM (inactive) | 10.8 µM (inactive) | 15.8 µM (inactive) | 20.7 µM (inactive) | 19.5 µM (inactive) | 12.1 µM (inactive) | 37.8 µM (inactive) | 18.3 µM (inactive) | 16.6 µM (inactive) | 10.7 µM (inactive)
CC(C)(C)c1ccc(O)c(CN(Cc2cc(C(C)(C)C)ccc2O)C2CCCCC2)c1 | 26.2 µM (inactive) | 16.2 µM (inactive) | 20.7 |  | 22.6 µM (inactive) | 17.6 µM (inactive) | 6.46 µM (inactive) | 10.7 µM (inactive) | 17.4 µM (inactive) | 18 µM (inactive) | 17.7 µM (inactive) | 20.4 µM (inactive) | 17.5 µM (inactive) | 17.4 µM (inactive) | 15.7 µM (inactive) | 15.8 µM (inactive) | 24.4 µM (inactive) | 18.5 µM (inactive) | 15.7 µM (inactive) | 23.2 µM (inactive)
O=C1NC2(CN3CCC2CC3)C(=O)N1CN(Cc1ccccc1)c1ccccc1 (stereo unspecified) | > 100 µM (inactive) | > 100 µM (inactive) | 41.2 | 21.1 µM (inactive) | > 100 µM (inactive) | > 100 µM (inactive) |  | 35.2 µM (inactive) | 47.9 µM (inactive) | > 100 µM (inactive) | 68.7 µM (inactive) | 44.4 µM (inactive) | > 100 µM (inactive) | 27 µM (inactive) | 37.6 µM (inactive) | 85.7 µM (inactive) | > 100 µM (inactive) | 25.3 µM (inactive) | > 100 µM (inactive) | 25.1 µM (inactive)
N#CCCN(CCC#N)c1ccc(/C=C2\N=C(c3ccccc3)N(c3ccc(F)cc3)C2=O)cc1 | > 100 µM (inactive) | > 100 µM (inactive) | > 100 |  | > 100 µM (inactive) | > 100 µM (inactive) | > 100 µM (inactive) | > 100 µM (inactive) | > 100 µM (inactive) | > 100 µM (inactive) | > 100 µM (inactive) |  | > 100 µM (inactive) | > 100 µM (inactive) | > 100 µM (inactive) | > 100 µM (inactive) | > 100 µM (inactive) | > 100 µM (inactive) | > 100 µM (inactive) | > 100 µM (inactive)
OCC1=C[C@@](COCc2ccccc2)(OCc2ccccc2)[C@@H](OCc2ccccc2)[C@@H]1OCc1ccccc1 | 14.5 µM (inactive) | 12.2 µM (inactive) | 17.1 | 23.4 µM (inactive) | 21.9 µM (inactive) | 7.01 µM (inactive) | 10.6 µM (inactive) | 7.31 µM (inactive) | 3.76 µM (inactive) | 9.08 µM (inactive) | 4.57 µM (inactive) | 16.6 µM (inactive) | 15.1 µM (inactive) | 3.64 µM (inactive) | 11.6 µM (inactive) | 15.7 µM (inactive) |  | 12.2 µM (inactive) | 17.3 µM (inactive) | 17 µM (inactive)
O=[N+]([O-])c1ccc(Cl)cc1N/N=C/c1cccc2cccnc12 | > 100 µM (inactive) | 54 µM (inactive) | > 100 | > 100 µM (inactive) | 30.8 µM (inactive) | > 100 µM (inactive) | 89.9 µM (inactive) |  | > 100 µM (inactive) | > 100 µM (inactive) | 39.7 µM (inactive) | > 100 µM (inactive) | > 100 µM (inactive) | > 100 µM (inactive) | > 100 µM (inactive) | > 100 µM (inactive) | > 100 µM (inactive) | 15.3 µM (inactive) | > 100 µM (inactive) | 33.1 µM (inactive)
O=[N+]([O-])c1cccc(/N=N/c2c(O)c(S(=O)(=O)O)cc3cc(S(=O)(=O)O)ccc23)c1 | > 100 µM (inactive) | > 100 µM (inactive) | > 100 | > 100 µM (inactive) | > 100 µM (inactive) | > 100 µM (inactive) | > 100 µM (inactive) |  | 67.8 µM (inactive) | > 100 µM (inactive) | > 100 µM (inactive) | > 100 µM (inactive) | > 100 µM (inactive) | > 100 µM (inactive) | > 100 µM (inactive) | > 100 µM (inactive) | > 100 µM (inactive) | > 100 µM (inactive) | > 100 µM (inactive) | > 100 µM (inactive)
NS(=O)(=O)c1ccc(NCc2cnc3ccccc3c2)cc1 | > 100 µM (inactive) | > 100 µM (inactive) | > 100 | 0.412 µM (active) | 51.8 µM (inactive) | 49.4 µM (inactive) | > 100 µM (inactive) |  | > 100 µM (inactive) | > 100 µM (inactive) | > 100 µM (inactive) | 60 µM (inactive) | > 100 µM (inactive) | > 100 µM (inactive) | 39.8 µM (inactive) | > 100 µM (inactive) | > 100 µM (inactive) | > 100 µM (inactive) | > 100 µM (inactive) | > 100 µM (inactive)
